Test results reported in patent publication US10328113B2, “Method for preventing or treating an allergic disease using extract from illicium verum” (Korea Institute of Oriental Medicine, priority 2012, dated 2019).

Columns and labels:
[1] = tested on: IL-4; experiment: IL-4 secretion inhibition, PMA and A23187-stimulated MC/9 mast cells (ELISA); type: cell-based; conditions: Mus musculus, Mast cell; positive control 10 nM; PMA + A23187, 7 hr; read-out: Inhibition rate of IL-4 (%)
Method: (§1) MC/9 mouse mast cells seeded in a 96-well plate were treated with 20 nM PMA (Phorbol Myristate Acetate) and 0.5 μM or 1 μM calcium ionophore A23187, together with various concentrations of the Illicium verum extract (0, 25, 50, 100, 200 and 400 μg/ml). […] Seven hour later, the secreted amount of cytokines in medium was measured using the ELISA kit (R&D systems Inc., Minneapolis, USA). The 100% activity was calculated with referring to difference of the secreted cytokine amount between the untreated group and the treated group with PMA and A23187.
(§2) The secretion amount was calculated as follows: [1−(the amount of the secreted cytokine in the treated group−the amount of the secreted cytokine in the untreated group)/(the amount of secreted […] in the untreated group]×100.
(§3) The inhibition rate was calculated as follows: [1−(the amount of the secreted cytokine in the treated group−the amount of the secreted cytokine in the untreated group)/(the amount of secreted cytokine in positive control−the amount of the secreted cytokine in the untreated group]×100.
(§4) All data were expressed as mean±standard deviation. Student's t-test was used to examine differences among groups and the data with p<0.05 were considered as statistically significant.

[2] = tested on: IL-8; experiment: IL-8 secretion inhibition, PMA and A23187-stimulated MC/9 mast cells (ELISA); type: cell-based; conditions: Mus musculus, Mast cell; positive control 10 nM; PMA + A23187, 7 hr; read-out: Inhibition rate of IL-8 (%)
Method: as §1, §2, §3, §4

C[C@@H]1C[C@H]2[C@@H]3CCC4=CC(=O)C=C[C@]4(C)[C@@]3(F)[C@@H](O)C[C@]2(C)[C@@]1(O)C(=O)CO [Dex, dexamethasone]
inhibition at 0.01 µM [1]: 0.4% | inhibition at 0.01 µM [2]: 23%
